Patent publication US20080269179A1, “Use of Megestrol Acetate for the Treatment of Obstructive Pulmonary Diseases” (priority 2005, published 2008)

Key:
[1] = system: rat myocardial infarct model; assay: Mortality / survival in rat myocardial infarct model of heart failure; format: in vivo, rats
Protocol: (§1) In another study, a similar rat myocardial infarct model as above was used in order to assess the therapeutic potential of MA in heart failure.
(§2) Methods: From day 14 after surgery (LAD occlusion), rats received frusemide. On day 42, rats were randomized to receive 26 weeks treatment with placebo (PL: n=38), ramipril (n=38, 1 mg/kg/d), the standard MA formulation (MA-I: n=37) or a new nanocristal MA formulation (MA-II: n=40, both 100 mg/kg/d) until sacrifice, Cardiac function was assessed using echocardiography. Additionally, body composition was analyzed boy NMR-scanning, and in a subgroup cardiac function was assessed by MRI scanning and invasive hemodynamics.

[2] = system: lung of infarction surgery rats; assay: Histopathology of the lungs in rat infarct model; format: in vivo, Male Wistar-rats
Protocol: (§3) An animal study was carried out, wherein a ligation of the left coronary artery was performed in 140 animals. For control 20 animals were operated without coronary ligature (sham-surgery). Two weeks after surgery, therapy was started. Therefore, the animals were treated with a diuretic (furosemide, in average 10 per kg in drinking water). After six weeks double-blind randomised therapy with either placebo, old or new megestrol acetate (from day 42 on using gavage, 100 mg per kg) or ACE-inhibitor (Ramipril®, 1 mg per kg per day) was started. The infarct groups consisted of 38 animal each for Ramipril® and placebo, 37 for MA-1 and 40 for MA-II, as well as 5 animals per sham group. During the therapy animals were weighed twice a week. On day 224 after surgery animals were sacrificed and the lung was analyzed regarding weight and histopathology.
(§4) The animals underwent surgical treatment at a weight of about 210-220 g. In order to produce a heart insufficiency the inventors performed the surgical treatment in accordance with an infarction model that was already used in several prior studies. The heart infarction is produced according to a slightly modified method described by Selye et al. [Selye H, Bajusz E, Grassos S, Mendel P. Simple techniques for the surgical occlusion of coronary vessels in the rat. Angiology 1960; 11: 398-407] by ligation of the LAD.
(§5) Each rat was anaesthetised by i.p. chloralhydrate (Merck, Darmstadt, Germany) and was subsequently incubated with a PE-catheter (1.2 mm diameter) and respirated using a Rodent-respirator V5K6 (NarcoBio Systems, Houston, Tex., USA). During the whole operation an ECG was performed as control. The thorax was opened, the heart was prepared and a ligature using Ethibond-suture material 7/0 (Ethicon GmbH Norderstedt, Germany) was made in position of the left coronary artery (LAD). Since the coronary arteries during this process can not be viewed by the naked eye, the orientation occurred anatomically based on the position of the heart and the visible coronary veins. The success of the infarction could be visually verified based on the occurring paleness, cyanosis and mobility distortion. Subsequently, the thorax was closed. The respiration was ended, once a stable ECG was reached. 20 rats were used as control animals and were surgically treated in the same manner as the infarction animals. No coronary ligature was introduced in these animals (sham-surgery).
After the surgery, the animals were controlled and the weight was analysed twice a week during the whole study. From day 14 on, the animals received furosemide, accompanied from day 42 on with either placebo, ACE-inhibitor, MA-I or MA-TI. On day […] post-surgery the animals were randomised and segregated into the respective groups. During therapy animals were weighted twice a week and on day 224 post-surgery animals were sacrificed to analyze organs.
MA-I, MA-II, ACE-inhibitor (Ramipril®) or control substances were administered to the animals via gavage. Depending on the time of surgery, the animals were gavaged stating from week six after the in infarction surgery once a day, whereby the amount of gavage was adjusted to the weight (100 mg MA-I/kg body weight per day, 1 ml solution contains 40 mg MA-I or MA-II or placebo, respectively).
In the 32st week post-surgery, the surviving animals were anaesthetised using chloralhydrate i.p. […] body weight (Sigma-Aldrich Chemie GmbH, Deisenhofen, Germany). Following the preparation of the subscapular brown fatty tissue, lapratomisation was performed and blood was drawn from the aorta abdominalis into EDTA-flushed 10 ml syringes (Roth, Karlsruhe, Germany) and added to pre-chilled 12 ml-tubes (Sarstedt, Nümbrecht, Germany). The following parts were removed completely or partially: lung, heart, liver, kidneys, renal glands, inguinal fatty tissue, epididymal fatty tissue, gastrocnemius, and brain. […]

[3] = Weight determinations in rat infarct model of chronic heart insufficiency; format: in vivo, Male Wistar-rats; details: day 224 after surgery
Protocol: as §3
Male Wistar-rats (Dimed GmbH, Schönwalde, Germany) were held in an environment controlled animal facility having a constant temperature of 23° C. in a 12 hour day-night-cycle.
as §4
as §5, with “The respiration was ended, once a stable ECG was reached. 20 rats were used as control animals and were surgically treated in the same manner as the infarction animals. No coronary ligature was introduced in these animals (sham-surgery).” left out
(§6) After the surgery, the animals were controlled and the weight was analysed twice a week during the whole study. […]
During the progression of both studies; the animals were weight-determined twice a week, starting from the date of surgery (laboratory balance model CS2000. Ohaus Corporation, Pine Brook, N.J., USA). The results were calculated corresponding to the post-surgical day of the respective animal. […]

[4] = system: rat myocardial infarct model; assay: Cardiac function (echocardiography) in rat myocardial infarct model; format: in vivo, rats; details: 26 weeks treatment
Protocol: as §1, §2

[5] = Body weight, body composition (NMR-scanning) and tibia length in rat myocardial infarct model; format: in vivo, rats; details: 26 weeks treatment
Protocol: as §1, §2

[6] = system: lung of infarction surgery rats; assay: Lung wet weight and amount of liquid in the lung in rat infarct model; format: in vivo, Male Wistar-rats
Protocol: as §3
The animals underwent surgical treatment at a weight of about 210-220 g. In order to produce a heart insufficiency the inventors performed the surgical treatment in accordance with an infarction model that was already used in several prior studies. […]
as §6

[7] = infarct animals, around the great respiratory tracts, day 224
[8] = infarct animals, great respiratory tracts, day 224

17-α-acetoxy-6-methylpregna-4,6diene-3,20-dione [Megestrol acetate]
survival in infarction surgery rats ([1]; in comparison to placebo): significantly improved the survival
inflammation and mucus goblet cells of the lung (histopathology, in words) ([2]; infarct rats, vs placebo and Ramipril groups): a reduction in the number of mucus goblet cells and a reduced inflammation of the lung

CCOC(=O)[C@H](CCc1ccccc1)N[C@@H](C)C(=O)N1[C@H](C(=O)O)C[C@@H]2CCC[C@@H]21 [Ramipril]
Weight of animals normalised to tibia length at the end of the study (mean) ([3]; infarct animals): 133.2 g/cm tibia
Weight of animals at the end of the study (mean) ([3]; infarct animals, gavage from day 42, MA 100 mg/kg/d, ramipril 1 mg/kg/d): 575.0 g
Weight of animals at the end of the study (mean) ([3]; sham-surgery animals): 567.2 g
Weight of animals normalised to tibia length at the end of the study (mean) ([3]; sham-surgery animals): 135.0 g/cm tibia
CO/BW [4]: 178 ± 8^$ ml/min/kg
EF [4]: 40 ± 2%
Body weight, end of study ([5]; MA 100 mg/kg/d, ramipril 1 mg/kg/d, in g): 575 ± 8
Fat/tibia ([5]; NMR-scanning): 45.3 ± 5.9 g/cm
Lean/tibia ([5]; NMR-scanning): 83.2 ± 2.5 g/cm
tibia length ([5]; retarded growth): 4.3 cm
average weight of the liquid in the lung [6]: 2396 mg
average wet weight of the lung [6]: 3103 ± 281 mg
Mortality ([1]; 26 weeks treatment from day 42, MA 100 mg/kg/d, ramipril 1 mg/kg/d): 13%
Inflammation: number of animals graded little [2, 7]: 1
Inflammation: number of animals graded medium [2, 7]: 2
Inflammation: number of animals graded strong [2, 7]: 2
Inflammation: number of animals graded very strong [2, 7]: 18
Mucus goblet cells: number of animals graded medium [2, 8]: 7
Mucus goblet cells: number of animals graded strong [2, 8]: 6
Mucus goblet cells: number of animals graded very strong [2, 8]: 10
Emphysema: number of animals graded little ([2]; infarct animals, lung, day 224): 3
Emphysema: number of animals graded medium ([2]; infarct animals, lung, day 224): 6
Emphysema: number of animals graded none ([2]; infarct animals, lung, day 224): 8
Emphysema: number of animals graded strong ([2]; infarct animals, lung, day 224): 4
Emphysema: number of animals graded very strong ([2]; infarct animals, lung, day 224): 2
Fibrosis: number of animals graded little ([2]; infarct animals, lung, day 224): 5
Fibrosis: number of animals graded medium ([2]; infarct animals, lung, day 224): 4
Fibrosis: number of animals graded none ([2]; infarct animals, lung, day 224): 12
Fibrosis: number of animals graded strong ([2]; infarct animals, lung, day 224): 2
